Assay results taken from patent US11401253B2, “16-methyl-oxacyclohexadecan-2-one and 16-methyl-azacyclohexadecan-2-one derivatives as antimicrobial agents” (THE UNIVERSITY OF MONTANA, priority 2017, dated 2022).
Converted amounts (≈) assume the structure as drawn. “And” between values parts separate entries of the source, which are not always exact repeats. Equal values may be shown once.

Assays:
P. aeruginosa = test: Antibiotic testing (MIC), gram negative P. aeruginosa; type: cell-based; settings: Pseudomonas aeruginosa; read-out: MIC, P. aeruginosa
Description: (§1) None of this collection of compounds were active against Gram-negative bacteria
(§2) Additionally, BPL 76 and derivatives were tested against a panel of gram negative bacteria including K. pneumonia, P. aeruginosa and E. coli (Table 12).

S. aureus CAIRD148 = test: Antibiotic testing, methicillin-resistant S. aureus CAIRD148; type: cell-based; settings: methicillin-resistant strain; for MIC: Staphylococcus aureus, CAIRD148
Excerpt: (§3) Both the methyl ester and the diacetate derivatives of BPL 76 slightly less but still very strong activity against the same four MRSA strains (Table 11). The activities of compounds BPL 76 and BPL 81 were compared to several known antibiotics against three methicillin-resistant strains of S. aureus [FIG. 6, comparative data provided by Hartford Hospital, Center for Anti-Infective Research and Development (CAIRD)].

Vero cell = test: Cytotoxicity (MTS), Vero cells; type: cell-based, monkey; settings: Primates, 72 hours exposure
C. albicans = test: Antibiotic testing (MIC), C. albicans; type: cell-based; settings: Candida albicans; growth inhibition ≥90%; read-out: minimum inhibitory concentration, C. albicans
[1] = system: non-replicating persistence Mycobacterium tuberculosis (NRP-TB); test: Low oxygen recovery assay (LORA), non-replicating persistence Mtb; type: cell-based; settings: for MIC: Mycobacterium tuberculosis, non-replicating persistence, hypoxic conditions, read-out: MIC, LORA
S. aureus CAIRD142 = test: Antibiotic testing, methicillin-resistant S. aureus CAIRD142; type: cell-based; settings: methicillin-resistant strain; for MIC: Staphylococcus aureus, CAIRD142
Excerpt: as §3

E. coli (25922) = test: Antibiotic testing (MIC), gram negative E. coli; type: cell-based; settings: Escherichia coli; read-out: MIC, E. coli (25922)
Description: as §1, §2

S. aureus CAIRD116 = test: Antibiotic testing, methicillin-resistant S. aureus CAIRD116; type: cell-based; settings: methicillin-resistant strain; for MIC: Staphylococcus aureus, CAIRD116
Excerpt: as §3

K. pneumoniae (10031) = test: Antibiotic testing (MIC), gram negative K. pneumoniae; type: cell-based; settings: Klebsiella pneumoniae; read-out: MIC, K. pneumoniae (10031)
Description: as §1, §2

Candida glabrata = test: Antibiotic testing (MIC), Candida glabrata; type: cell-based; settings: Nakaseomyces glabratus; growth inhibition ≥90%; read-out: minimum inhibitory concentration, Candida glabrata
Bacillus subtilis = test: Antibiotic testing (MIC), Bacillus subtilis; type: cell-based; settings: growth inhibition ≥90%, read-out: minimum inhibitory concentration, Bacillus subtilis
B. anthracis = test: microbe, parasite or virus in culture; type: cell-based; settings: Bacillus anthracis, read-out: minimum inhibitory concentration, B. anthracis
Streptococcus pyogenes = test: Antibiotic testing (MIC), Streptococcus pyogenes; type: cell-based; settings: growth inhibition ≥90%, read-out: minimum inhibitory concentration, Streptococcus pyogenes
[2] = system: Mycobacterium tuberculosis; test: microbe, parasite or virus in culture; settings: read-out: MIC, MABA
Enterococcus faecalis = test: Antibiotic testing (MIC), Enterococcus faecalis; type: cell-based; settings: growth inhibition ≥90%, read-out: minimum inhibitory concentration, Enterococcus faecalis
S. aureus (NE277) = test: Antibiotic testing, methicillin-resistant S. aureus NE277; type: cell-based; settings: for MIC: Staphylococcus aureus, read-out: antibiotic testing data (MIC), S. aureus (NE277)
Excerpt: as §3

[3] = system: Staphylococcus aureus (13709); test: Antibiotic testing (MIC), S. aureus 13709; type: cell-based; settings: growth inhibition ≥90% relative to drug-free controls, read-out: minimum inhibitory concentration, Staphylococcus aureus (13709)
HepG2 = test: Cytotoxicity (MTS), HepG2 cells; type: cell-based; settings: Homo sapiens, 72 hours exposure
J774 = test: Cytotoxicity (MTS), J774 cells; type: cell-based, murine; settings: Mus musculus, 72 hours exposure
MMP-3 = biological target: T1, MMP-3 (Homo sapiens, UniProt P08254); test: MMP-3 enzyme inhibition assay; type: biochemical
T1 construct: purchased BioMol
T1 sequence (P08254 100-477): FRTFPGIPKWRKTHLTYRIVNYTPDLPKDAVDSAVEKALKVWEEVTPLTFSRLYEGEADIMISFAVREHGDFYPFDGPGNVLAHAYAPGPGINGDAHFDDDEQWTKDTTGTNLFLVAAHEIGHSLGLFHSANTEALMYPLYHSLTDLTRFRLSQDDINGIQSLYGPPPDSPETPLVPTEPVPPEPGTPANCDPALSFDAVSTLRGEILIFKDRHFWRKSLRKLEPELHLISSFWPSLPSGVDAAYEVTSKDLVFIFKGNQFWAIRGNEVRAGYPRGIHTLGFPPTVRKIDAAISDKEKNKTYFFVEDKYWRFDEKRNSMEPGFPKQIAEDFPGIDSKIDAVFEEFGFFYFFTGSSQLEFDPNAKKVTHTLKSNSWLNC
Description: The two fungi were also co-cultured under controlled conditions. P. fuscum was grown in pure culture in potato dextrose broth (10×400 mL). After 24 h, an agar cube (8 mm^3) impregnated with P. camembertii/clavigerum mycelium was added to each flask and the resulting co-culture was shaken for 6 more days (200 rpm, room temperature). At time of harvest, methanol (50 mL/flask) was added, the mycelia were removed by gravity filtration and the broth was extracted with chloroform (3×2 L). The chloroform was removed in vacuo to yield 663 mg of crude extract. The crude extract was verified to be active in the MMP-3, caspase-1 and caspase-3 enzyme inhibition assays. Enzyme inhibitory activity was determined using specific BioMol enzyme inhibition assay kits for drug discovery as described in Stierle, A; Stierle, D. The Berkeleylactones, Antibiotic Macrolides from Fungal Coculture. J. Nat. Prod. 80, 4, 1150-1160.

[4] = system: Mycobacterium tuberculosis; settings: MABA
GFP synthesis = test: Cell-free translation assay with GFP reporter; type: biochemical; settings: 50 μM, 37° C., readings for 2 hr
Description: Further assessment of the effect of BPL76 on protein translation was done using a cell-free translation assay. The plasmid pY71-sfGFP^55 (5 ng) was translated in the PUREexpress in vitro protein synthesis system (New England Biolabs). The final concentrations of erythromycin, josamycin and tylosin in the translation reactions were 50 μM. The reactions were incubated at 37° C. and fluorescence readings (excitation: 488 nm, emission, 520 nm) were taken every 20 min for 2 hr.

With `COC(=O)[C@H](O)CS[C@@H]1CC(=O)[C@@H](O)CCCCCCCCC[C@@H](C)OC1=O` [BPL 76-Me ester, methyl (S)-2-hydroxy-3-(((3R,6S,16R)-6-hydroxy-16-methyl-2,5-dioxooxacyclohexadecan-3-yl)thio)propanoate] the MIC (P. aeruginosa) was greater than 250 µM, the MIC (S. aureus CAIRD148) was 2 µg/mL (≈ 4.78 µM) and the IC50 (Vero cell) was 74 µg/mL (≈ 177 µM). The MIC (C. albicans) was 13 µg/mL (≈ 31.1 µM), the MIC [1] was 19 µg/mL (≈ 45.4 µM) and the MIC (S. aureus CAIRD142) was 2 µg/mL (≈ 4.78 µM). The MIC (E. coli (25922)) was 125 µM and 52.3 µg/mL, the MIC (S. aureus CAIRD116) was 2 µg/mL (≈ 4.78 µM) and the MIC (K. pneumoniae (10031)) was 250 µM and 105 µg/mL. It also gave an MIC (Candida glabrata) of 7 µg/mL (≈ 16.7 µM), an MIC (Bacillus subtilis) of 3 µg/mL (≈ 7.17 µM) and an MIC (B. anthracis) of 1 µg/mL (≈ 2.39 µM). It also gave an MIC (Streptococcus pyogenes) of 3 µg/mL (≈ 7.17 µM), an MIC [2] of 32 µg/mL (≈ 76.5 µM) and an MIC (Enterococcus faecalis) of 3 µg/mL (≈ 7.17 µM). It also gave an MIC (S. aureus (NE277)) of 2 µg/mL (≈ 4.78 µM), an MIC [3] of 1 µg/mL (≈ 2.39 µM) and an IC50 (HepG2) of 55.6 µg/mL (≈ 133 µM). It also gave an IC50 (J774) of 38 µg/mL (≈ 90.8 µM).
In the case of `COC(=O)[C@@H](CS[C@@H]1CC(=O)[C@@H](OC(C)=O)CCCCCCCCC[C@@H](C)OC1=O)OC(C)=O` [BPL 76-diacetate, methyl (S)-2-acetoxy-3-(((3R,6S,16R)-6-acetoxy-16-methyl-2,5-dioxooxacyclohexadecan-3-yl)thio)propanoate], the MIC (P. aeruginosa) was greater than 125 µM, the MIC (S. aureus CAIRD148) was 4 µg/mL (≈ 7.96 µM) and the MIC (C. albicans) was greater than 125 µg/mL. The MIC (S. aureus CAIRD142) was 7 µg/mL (≈ 13.9 µM), the MIC (E. coli (25922)) was greater than 125 µM and the MIC (S. aureus CAIRD116) was 4 µg/mL (≈ 7.96 µM). For the same compound, the MIC (K. pneumoniae (10031)) was greater than 125 µM, the MIC (Candida glabrata) was greater than 125 µg/mL and the MIC (Bacillus subtilis) was 7 µg/mL (≈ 13.9 µM). For the same compound, the MIC (B. anthracis) was 4 µg/mL (≈ 7.96 µM), the MIC (Streptococcus pyogenes) was 15 µg/mL (≈ 29.8 µM) and the MIC (Enterococcus faecalis) was 15 µg/mL (≈ 29.8 µM). The MIC (S. aureus (NE277)) was 4 µg/mL (≈ 7.96 µM) and the MIC [3] was 2 µg/mL (≈ 3.98 µM).
`C[C@@H]1CCCCCCCCC[C@H](OC(=O)CCC(=O)O)[C@H](O)/C=C/C(=O)O1` [BPL 84, 4-(((5R,6S,16R,E)-5-hydroxy-16-methyl-2-oxooxacyclohexadec-3-en-6-yl)oxy)-4-oxobutanoic acid] was tested, and the MIC (P. aeruginosa) was greater than 250 µM, the MIC (S. aureus CAIRD148) was greater than 90 µg/mL and the “antibiotic testing data (MIC), S. aureus CAIRD148” value (S. aureus CAIRD148) was greater than 250 µM. The MMP-3 inhibition (MMP-3) was “weaker inhibitors”, the IC50 (Vero cell) was greater than 100 µg/mL and the MIC (C. albicans) was greater than 90 µg/mL. For the same compound, the “activity against non-replicating Mtb (in words)” value ([1]; LORA) was “not active”, the MIC [1] was greater than 100 µg/mL and the “activity against replicating Mtb (in words)” value [4] was “not active”. The MIC (S. aureus CAIRD142) was greater than 90 µg/mL, the “antibiotic testing data (MIC), S. aureus CAIRD142” value (S. aureus CAIRD142) was greater than 250 µM and the MIC (E. coli (25922)) was greater than 250 µM. For the same compound, the MIC (S. aureus CAIRD116) was greater than 90 µg/mL, the “antibiotic testing data (MIC), S. aureus CAIRD116” value (S. aureus CAIRD116) was greater than 250 µM and the MIC (K. pneumoniae (10031)) was greater than 250 µM. It also gave an MIC (Candida glabrata) greater than 90 µg/mL, an MIC (Bacillus subtilis) greater than 90 µg/mL and an MIC (B. anthracis) greater than 90 µg/mL. It also gave an MIC (Streptococcus pyogenes) greater than 90 µg/mL, an MIC [2] greater than 100 µg/mL and an MIC (S. aureus (NE277)) greater than 90 µg/mL. For the same compound, the “antibiotic testing data (MIC), S. aureus (NE277)” value (S. aureus (NE277); methicillin-resistant strain) was greater than 250 µM, the MIC [3] was 45 µg/mL (≈ 117 µM) and the IC50 (HepG2) was greater than 100 µg/mL. For the same compound, the IC50 (J774) was greater than 100 µg/mL.
`C[C@@H]1CCCCCCCCC[C@H](OC(=O)CCC(=O)O)C(=O)C[C@@H](SC[C@@H](O)C(=O)O)C(=O)O1` [BPL 88, 4-(((3R,6S,16R)-3-(((S)-2-carboxy-2-hydroxyethyl)thio)-16-methyl-2,5-dioxooxacyclohexadecan-6-yl)oxy)-4-oxobutanoic acid] was tested, and the MIC (P. aeruginosa) was greater than 250 µM, the MIC (S. aureus CAIRD148) was 8 µg/mL (≈ 15.9 µM) and the MMP-3 inhibition (MMP-3) was “weaker inhibitors”. It also gave an IC50 (Vero cell) greater than 100 µg/mL, an MIC (C. albicans) greater than 119 µg/mL and an MIC [1] of 46 µg/mL (≈ 91.2 µM). It also gave an MIC (S. aureus CAIRD142) of 15 µg/mL (≈ 29.7 µM), an MIC (E. coli (25922)) greater than 250 µM and an MIC (S. aureus CAIRD116) of 15 µg/mL (≈ 29.7 µM). For the same compound, the MIC (K. pneumoniae (10031)) was greater than 250 µM, the MIC (Candida glabrata) was 31 µg/mL (≈ 61.4 µM) and the MIC (Bacillus subtilis) was 31 µg/mL (≈ 61.4 µM). The MIC (B. anthracis) was 8 µg/mL (≈ 15.9 µM), the MIC (Streptococcus pyogenes) was 119 µg/mL (≈ 236 µM) and the MIC [2] was greater than 100 µg/mL. For the same compound, the MIC (Enterococcus faecalis) was 31 µg/mL (≈ 61.4 µM), the MIC (S. aureus (NE277)) was 8 µg/mL (≈ 15.9 µM) and the MIC [3] was 4 µg/mL (≈ 7.93 µM). It also gave an IC50 (HepG2) greater than 100 µg/mL and an IC50 (J774) of 42.5 µg/mL (≈ 84.3 µM).
With `CC[C@H]1OC(=O)[C@H](C)[C@@H](O[C@H]2C[C@@](C)(OC)[C@@H](O)[C@H](C)O2)[C@H](C)[C@@H](O[C@@H]2O[C@H](C)C[C@H](N(C)C)[C@H]2O)[C@](C)(O)C[C@@H](C)C(=O)[C@H](C)[C@@H](O)[C@]1(C)O` [erythromycin] the “inhibition of GFP synthesis and corresponding fluorescence” value (GFP synthesis) was “effectively inhibited”.
With `CO[C@@H]1[C@@H](O[C@@H]2O[C@H](C)[C@@H](O[C@H]3C[C@@](C)(O)[C@@H](OC(=O)CC(C)C)[C@H](C)O3)[C@H](N(C)C)[C@H]2O)[C@@H](CC=O)C[C@@H](C)[C@@H](O)/C=C/C=C/C[C@@H](C)OC(=O)C[C@H]1OC(C)=O` [josamycin] the “inhibition of GFP synthesis and corresponding fluorescence” value (GFP synthesis) was “effectively inhibited”.
With `CC[C@H]1OC(=O)C[C@@H](O)[C@H](C)[C@@H](O[C@@H]2O[C@H](C)[C@@H](O[C@H]3C[C@@](C)(O)[C@@H](O)[C@H](C)O3)[C@H](N(C)C)[C@H]2O)[C@@H](CC=O)C[C@@H](C)C(=O)/C=C/C(C)=C/[C@@H]1CO[C@@H]1O[C@H](C)[C@@H](O)[C@@H](OC)[C@H]1OC` [tylosin] the “inhibition of GFP synthesis and corresponding fluorescence” value (GFP synthesis) was “effectively inhibited”.
